This experiment has as its system CD2F1 mice, L1210 leukemia ip, survival T/C. In words: NCI In Vivo Anticancer Drug Screen. Data for tumor model L1210 Leukemia (intraperitoneal) in CD2F1 (CDF1) mice. To be noted: higher = longer survival. A digest of the protocol: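 Transplantable tumor in mice; compound-treated vs vehicle-treated groups. Read-out = treated/control ratio of the measured endpoint.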

[1] abbreviates: endpoint: mean survival time, dose: 100.0 mg/kg/injection, schedule: Q01DX009 (ip), vehicle: Klucel (hydroxypropylcellulose) (HPC).
Where [2] appears, read: endpoint: mean survival time, dose: 200.0 mg/kg/injection, schedule: Q01DX009 (ip), vehicle: Klucel (hydroxypropylcellulose) (HPC).
The mark [3] stands for this setting: endpoint: mean survival time, dose: 100.0 mg/kg/injection, schedule: Q04DX002 (ip), vehicle: saline with Tween-80.
Where [4] appears, read: endpoint: mean survival time, dose: 400.0 mg/kg/injection, schedule: Q04DX002 (ip), vehicle: saline with Tween-80.
The mark [5] stands for this setting: endpoint: mean survival time, dose: 200.0 mg/kg/injection, schedule: Q04DX002 (ip), vehicle: saline with Tween-80.
Setting [6] is: endpoint: mean survival time, dose: 100.0 mg/kg/injection, schedule: Q04DX003 (ip), vehicle: saline with Tween-80.

Where “and” joins values, the source holds several entries; their conditions need not be identical. Identical values can stand only once. Toxic doses and inconclusive results are not listed.

Regarding `CC1(C)CC(=O)c2cc([C@@H]3OC[C@@H](O)[C@H]3O)[nH]c2C1`, the T/C runs as follows: (endpoint: median survival time, dose: 12.5 mg/kg/injection, schedule: Q01DX005 (ip), vehicle: water) 101 % of control; (endpoint: median survival time, dose: 25.0 mg/kg/injection, schedule: Q01DX005 (ip), vehicle: water) 101 % of control; (endpoint: median survival time, dose: 50.0 mg/kg/injection, schedule: Q01DX005 (ip), vehicle: water) 101 % of control; (endpoint: median survival time, dose: 100.0 mg/kg/injection, schedule: Q01DX005 (ip), vehicle: water) 94 % of control; (endpoint: median survival time, dose: 200.0 mg/kg/injection, schedule: Q01DX005 (ip), vehicle: water) 96 % of control.

Turning to `CN1CCN(c2ccc([N+](=O)[O-])c3no[n+]([O-])c23)CC1`, the T/C is, setting by setting: (endpoint: mean survival time, dose: 2.5 mg/kg/injection, schedule: Q01DX009 (ip), vehicle: saline with Tween-80) 105 % of control and 112 % of control; (endpoint: mean survival time, dose: 5.0 mg/kg/injection, schedule: Q01DX009 (ip), vehicle: saline with Tween-80) 114 % of control and 108 % of control; (endpoint: mean survival time, dose: 5.0 mg/kg/injection, schedule: Q01DX009 (ip), vehicle: saline) 123 % of control; (endpoint: mean survival time, dose: 10.0 mg/kg/injection, schedule: Q01DX009 (ip), vehicle: saline with Tween-80) 116 % of control and 110 % of control; (endpoint: mean survival time, dose: 20.0 mg/kg/injection, schedule: Q01DX009 (ip), vehicle: saline with Tween-80) 117 % of control and 119 % of control; (endpoint: mean survival time, dose: 40.0 mg/kg/injection, schedule: Q01DX009 (ip), vehicle: saline with Tween-80) 122 % of control and 103 % of control. Besides, the T/C (endpoint: mean survival time, dose: 80.0 mg/kg/injection, schedule: Q01DX009 (ip), vehicle: saline with Tween-80) was 121 % of control.

In the case of `Cc1ccc(NC(=O)Nc2ccccc2C(N)=O)c([N+](=O)[O-])c1`, the T/C runs as follows: under setting [1], 95 % of control; under setting [2], 89 % of control; (endpoint: mean survival time, dose: 400.0 mg/kg/injection, schedule: Q01DX009 (ip), vehicle: Klucel (hydroxypropylcellulose) (HPC)) 95 % of control.

Consider `CC(Br)(C(=O)O)C1CCCCC1` (stereo not given), for which the T/C was 93 % of control (endpoint: mean survival time, dose: 100.0 mg/kg/injection, schedule: Q01DX001 (ip), vehicle: saline with Tween-80); 96 % of control (endpoint: mean survival time, dose: 200.0 mg/kg/injection, schedule: Q01DX001 (ip), vehicle: saline with Tween-80); 99 % of control (endpoint: mean survival time, dose: 400.0 mg/kg/injection, schedule: Q01DX001 (ip), vehicle: saline with Tween-80).

Turning to `O=[N+]([O-])c1cc(Cl)ccc1NC(Nc1ccc(Cl)cc1[N+](=O)[O-])C(Cl)(Cl)Cl`, the T/C (endpoint: mean survival time, dose: 100.0 mg/kg/injection, schedule: Q01DX009 (ip), vehicle: saline with Tween-80) was 101 % of control; the T/C (endpoint: mean survival time, dose: 200.0 mg/kg/injection, schedule: Q01DX009 (ip), vehicle: saline with Tween-80) is 106 % of control; the T/C (endpoint: mean survival time, dose: 400.0 mg/kg/injection, schedule: Q01DX009 (ip), vehicle: saline with Tween-80) is 101 % of control.

On to `COc1ccccc1/C=C\C(=O)C1COCN1` (stereo not given), for which the T/C reads like this: (endpoint: mean survival time, dose: 37.5 mg/kg/injection, schedule: Q01DX009 (ip), vehicle: saline) 98 % of control; (endpoint: mean survival time, dose: 75.0 mg/kg/injection, schedule: Q01DX009 (ip), vehicle: saline) 98 % of control; (endpoint: mean survival time, dose: 150.0 mg/kg/injection, schedule: Q01DX009 (ip), vehicle: saline) 98 % of control.

Turning to `C[n+]1c(-c2ccc(/C=N/NC(=O)c3ccc(C(=O)N/N=C/c4ccc(-c5cn6ccccc6[n+]5C)cc4)cc3)cc2)cn2ccccc21`, the T/C reads like this: (endpoint: median survival time, dose: 25.0 mg/kg/injection, schedule: Q01DX005 (ip), vehicle: saline with Tween-80) 162 % of control; (endpoint: median survival time, dose: 43.2 mg/kg/injection, schedule: Q01DX005 (ip), vehicle: saline with Tween-80) 200 % of control; (endpoint: median survival time, dose: 72.0 mg/kg/injection, schedule: Q01DX005 (ip), vehicle: saline with Tween-80) 362 % of control; (endpoint: median survival time, dose: 100.0 mg/kg/injection, schedule: Q01DX005 (ip), vehicle: saline with Tween-80) 307 % of control; (endpoint: median survival time, dose: 120.0 mg/kg/injection, schedule: Q01DX005 (ip), vehicle: saline with Tween-80) 375 % of control; (endpoint: median survival time, dose: 200.0 mg/kg/injection, schedule: Q01DX005 (ip), vehicle: saline with Tween-80) 329 % of control and 375 % of control. For the same molecule, the T/C by setting is: (endpoint: median survival time, dose: 333.33 mg/kg/injection, schedule: Q01DX005 (ip), vehicle: saline with Tween-80) 162 % of control; (endpoint: median survival time, dose: 400.0 mg/kg/injection, schedule: Q01DX005 (ip), vehicle: saline with Tween-80) 329 % of control.

Take `CCOC(=O)Nc1cccc([N+](=O)[O-])c1`: the T/C by setting is: (endpoint: mean survival time, dose: 100.0 mg/kg/injection, schedule: Q01DX009 (ip), vehicle: other) 98 % of control; (endpoint: mean survival time, dose: 200.0 mg/kg/injection, schedule: Q01DX009 (ip), vehicle: other) 113 % of control.

On to `O=C(O)CCSc1ccc2c(c1)CCCC2`, for which the T/C is 101 % of control under setting [1] and 98 % of control under setting [2].

For the molecule `C[n+]1c(-c2cc(Cl)cc(Cl)c2)c2cc(N)ccc2c2ccccc21`, the T/C (endpoint: mean survival time, dose: 6.25 mg/kg/injection, schedule: Q01DX009 (ip), vehicle: water) was 108 % of control; the T/C (endpoint: mean survival time, dose: 12.5 mg/kg/injection, schedule: Q01DX009 (ip), vehicle: water) is 108 % of control; the T/C (endpoint: mean survival time, dose: 25.0 mg/kg/injection, schedule: Q01DX009 (ip), vehicle: water) was 104 % of control.

`Cc1cc(=O)c(C(=O)NC/C(C#N)=C\c2ccccc2)c(C)[nH]1`: the T/C reads like this: under setting [3], 93 % of control; under setting [4], 100 % of control.

As to `CN=C(N)c1ccc(N=C(N)c2ccc(NC(=O)c3ccc(C(N)=NC)cc3)cc2)cc1`, the T/C (endpoint: mean survival time, dose: 30.0 mg/kg/injection, schedule: Q01DX Z (ip), vehicle: water) was 151 % of control.

In the case of `O=c1c2ccccc2[nH]c(=S)n1C1CCCC1`, the T/C runs as follows: under setting [3], 96 % of control; under setting [5], 108 % of control; under setting [4], 100 % of control.

Turning to `Oc1ccccc1OCCOCCOc1ccccc1O`, the T/C runs as follows: (endpoint: mean survival time, dose: 50.0 mg/kg/injection, schedule: Q04DX002 (ip), vehicle: other) 100 % of control; (endpoint: mean survival time, dose: 100.0 mg/kg/injection, schedule: Q04DX002 (ip), vehicle: other) 88 % of control; (endpoint: mean survival time, dose: 200.0 mg/kg/injection, schedule: Q04DX002 (ip), vehicle: other) 103 % of control; (endpoint: mean survival time, dose: 400.0 mg/kg/injection, schedule: Q04DX002 (ip), vehicle: other) 103 % of control.

Turning to `CC1=C(C)CC(C(Cl)(Cl)Cl)C([N+](=O)[O-])C1` (stereo not given), the T/C runs as follows: under setting [6], 98 % of control; (endpoint: mean survival time, dose: 200.0 mg/kg/injection, schedule: Q04DX003 (ip), vehicle: saline with Tween-80) 96 % of control.

Consider `O=P(OCCCl)(OCCCl)C(Cl)(Cl)Cl`, for which the T/C is, setting by setting: (endpoint: mean survival time, dose: 100.0 mg/kg/injection, schedule: Q01DX001 (ip), vehicle: saline) 103 % of control; (endpoint: mean survival time, dose: 200.0 mg/kg/injection, schedule: Q01DX001 (ip), vehicle: saline) 102 % of control; (endpoint: mean survival time, dose: 400.0 mg/kg/injection, schedule: Q01DX001 (ip), vehicle: saline) 103 % of control.

`Nc1ncnc2c1ncn2CCCl`: the T/C by setting is: (endpoint: mean survival time, dose: 25.0 mg/kg/injection, schedule: Q01DX009 (ip), vehicle: saline with Tween-80) 102 % of control; (endpoint: mean survival time, dose: 25.0 mg/kg/injection, schedule: Q04DX003 (ip), vehicle: saline with Tween-80) 103 % of control; (endpoint: mean survival time, dose: 50.0 mg/kg/injection, schedule: Q01DX009 (ip), vehicle: saline with Tween-80) 101 % of control; (endpoint: mean survival time, dose: 50.0 mg/kg/injection, schedule: Q04DX003 (ip), vehicle: saline with Tween-80) 96 % of control; under setting [6], 97 % of control.

Consider `N#CN=Nc1ccc(Cl)cc1`, for which the T/C by setting is: (endpoint: mean survival time, dose: 9.5 mg/kg/injection, schedule: Q01DX001 (ip), vehicle: other) 97 % of control; (endpoint: mean survival time, dose: 19.0 mg/kg/injection, schedule: Q01DX001 (ip), vehicle: other) 97 % of control; (endpoint: mean survival time, dose: 38.0 mg/kg/injection, schedule: Q01DX001 (ip), vehicle: other) 89 % of control.

On to `CN(C)C(=O)C(O)C1CCCCC1` (stereo not given), for which the T/C by setting is: under setting [3], 94 % of control; under setting [5], 94 % of control; under setting [4], 94 % of control.

For `COc1ccc(-n2c(C)nc3c(cnn3C3OC(CO)C(O)C3O)c2=O)cc1` (stereo not given), the T/C is 103 % of control (endpoint: median survival time, dose: 12.5 mg/kg/injection, schedule: Q01DX005 (ip), vehicle: saline); 102 % of control (endpoint: median survival time, dose: 25.0 mg/kg/injection, schedule: Q01DX005 (ip), vehicle: saline); 105 % of control (endpoint: median survival time, dose: 50.0 mg/kg/injection, schedule: Q01DX005 (ip), vehicle: saline); 111 % of control (endpoint: median survival time, dose: 100.0 mg/kg/injection, schedule: Q01DX005 (ip), vehicle: saline); 103 % of control (endpoint: median survival time, dose: 200.0 mg/kg/injection, schedule: Q01DX005 (ip), vehicle: saline).

(Values after PubChem BioAssay AID256 (DTP/NCI, 2004).)
